Two compounds from patent publication US10610863B2, “Automatic microfluidic system for antibiotic susceptibility testing and method of operating thereof” (NATIONAL TSING HUA UNIVERSITY, priority 2016, dated 2020) can be followed below.

Values after ≈ are worked out from the molar mass of the structure shown. Where only a bound is given, the exact number is not on record here.

For assay [1], the system named is vancomycin-intermediate Staphylococcus aureus (VISA). Put plainly: Microfluidic system of Embodiment 2 combination susceptibility testing (Test 6). To be noted: for minimum inhibitory concentration alone (denominator of the FIC equation): antibiotic alone; for minimum inhibitory concentration in combination (vancomycin + ceftazidime): colorimetric, 24 hours of incubation at 37° C. Type of assay: cell-based.
Protocol: In Test 6, vancomycin-intermediate Staphylococcus aureus (VISA) is designed as a bacterial suspension to be tested, and two antibiotic solutions, that is, vancomycin and ceftazidime, with different concentrations are prepared. In details, the two antibiotic solutions are transported, separately, to each of the second reaction chambers 124a′, 124b′, 124c′, 124d′, 124e′, 124f′, 124g′, 124h′, 124i′, 124j′, 124k′ to mix with the broth and the bacterial suspension to be tested. Then, concentrations of vancomycin of the second reaction chambers 124a′, 124b′, 124c′, 124d′, 124e′, 124f′, 124g′, 124h′, 124i′, 124j′, 124k′ are 4 μg/mL, 6 μg/mL, 4 μg/mL, 4 μg/mL, 4 μg/mL, 0 μg/mL, 6 μg/mL, 6 μg/mL, 2 μg/mL, 2 μg/mL and 2 μg/mL, respectively. Furthermore, concentrations of ceftazidime of the second reaction chambers 124a′, 124b′, 124c′, 124d′, 124e′, 124f′, 124g′, 124h′, 124i′, 124j′, 124k′ are 2 μg/mL, 2 μg/mL, 4 μg/mL, 6 μg/mL, 0 μg/mL, 4 μg/mL, 6 μg/mL, 4 μg/mL, 6 μg/mL, 4 μg/mL and 2 μg/mL, respectively. In addition, a proper pH indicator, such as phenol red, is added to the broth in Test 6. After incubation at 37° C. for 24 hours, results can be visually observed.
In particular, incubation times from FIG. 10(a) to FIG. 10(d) are 0 hour, 10 hours, 17 hours and 24 hours.
Then, a fractional inhibitory concentration index of the two antibiotic solutions for the vancomycin-intermediate Staphylococcus aureus can be derived from the following equation: FICindex=FICA+FICB. FICA is calculated as a quotient between the minimum inhibitory concentration of vancomycin in combination and the minimum inhibitory concentration of vancomycin alone, and FICB is calculated as a quotient between the minimum inhibitory concentration of ceftazidime in combination and the minimum inhibitory concentration of ceftazidime alone. In particular, the combination can be determined as synergic when the fractional inhibitory concentration index is ≤0.5, as antagonistic when the fractional inhibitory concentration index is >4. The results between synergy and antagonistic tendency are defined as additive or indifferent.

Assay [2] deals with E. gallinarum (vanC1). Put plainly: E-Test MIC, vancomycin-resistant Enterococcus vanC1 (Test 4). Type of assay: cell-based. Particulars: incubation time 24 hours. Here is the method: In Test 4, the antibiotic solution, the dilution mode and the operation of the microfluidic system are the as Test 1. However, a bacterial suspension to be tested of Test 4 is the bacterial suspension containing E. gallinarum (vancomycin-resistant Enterococcus). In particular, a genotype of the vancomycin-resistant Enterococcus in Test 4 is vanC1, and a minimum inhibitory concentration thereof is determined by the conventional method (E-Test®) to be 3 μg/mL. The incubation time and the determined minimum inhibitory concentration of E. gallinarum (vanC1) in Test 4 are listed in Table 1.

The subject of assay [3] is standard strain Enterococcus 29212 (ATCC). Description: Microfluidic system of Embodiment 1 antibiotic susceptibility testing (Test 1). To be noted: for MIC: Enterococcus. Type of assay: cell-based, E. faecalis.
Assay [4] has the same test system. Description: E-Test MIC, standard strain Enterococcus 29212 (Test 1). To be noted: incubation time 24 hours. The assay is classed as cell-based, E. faecalis. Here is the method: In Test 1, a standard strain Enterococcus 29212, which includes E. faecalis and is purchased from American type culture collection (ATCC), is designed as a bacterial suspension to be tested. The standard strain Enterococcus 29212 is susceptible Enterococcus, and a minimum inhibitory concentration of the standard strain Enterococcus 29212 detected by a clinical standard (i.e., E-Test®) is 4 μg/mL. In particular, the antibiotic solution of Test 1 is a vancomycin-containing solution.

Assay [5] deals with E. faecium (vanB). Description: E-Test MIC, vancomycin-resistant Enterococcus vanB (Test 3). The assay is classed as cell-based. To be noted: incubation time 24 hours. How it is done: In Test 3, the antibiotic solution, the dilution mode and the operation of the microfluidic system are the as Test 1. However, a bacterial suspension to be tested of Test 3 is the bacterial suspension containing E. faecium (vancomycin-resistant Enterococcus). In particular, a genotype of the vancomycin-resistant Enterococcus in Test 3 is vanB, and a minimum inhibitory concentration thereof is determined by the conventional method (E-Test®) to be 8 μg/mL.

Assay [6] concerns E. gallinarum (vanC1). Put plainly: Microfluidic system of Embodiment 1 antibiotic susceptibility testing (Test 4). Particulars: Enterococcus gallinarum, incubation time 16 hours. Type of assay: cell-based. How it is done:
(§1) Briefly, five different concentrations of antibiotic solutions (0 μg/mL, 2 μg/mL, 4 μg/mL, 6 μg/mL, and 8 μg/mL) are prepared, separately, by the microfluidic system of Embodiment 1 of the present disclosure with the proportional dilution mode. Then, the antibiotic solutions are mixed with the bacteria suspensions at a final concentration of 5×10^5 CFU/mL. The determination of the minimum inhibitory concentration is read after incubation at 37° C. for 24 hours.
(§2) Alternatively, a proper pH indicator, such as phenol red, also can be added to the broth as a determination method. In details, a pH-dependent colorimetric broth, which includes brain heart infusion (BHI) media supplemented with 1% glucose and 0.05% phenol red, and antibiotics, are loaded. Then, the standard strain Enterococcus 29212 is loaded as the bacteria suspension to be tested herein for the antibiotic susceptibility testing. […]
In Test 4, the antibiotic solution, the dilution mode and the operation of the microfluidic system are the as Test 1. […] In particular, a genotype of the vancomycin-resistant Enterococcus in Test 4 is vanC1, and a minimum inhibitory concentration thereof is determined by the conventional method (E-Test®) to be 3 μg/mL. The incubation time and the determined minimum inhibitory concentration of E. gallinarum (vanC1) in Test 4 are listed in Table 1.

The subject of assay [7] is E. faecium (vanA). Description: Microfluidic system of Embodiment 1 antibiotic susceptibility testing (Test 2). The assay is classed as cell-based. Particulars: Enterococcus faecium, incubation time 24 hours. Here is the method:
as §1
as §2, with “testing. Please refer to FIG. 9, which is colorimetric results of the antibiotic susceptibility testing of the standard strain Enterococcus 29212 diluted by the microfluidic chip of FIG. 1.” for “testing.”
In Test 2, the antibiotic solution, the dilution mode and the operation of the microfluidic system are the as Test 1. […] In particular, a genotype of the vancomycin-resistant Enterococcus in Test 2 is vanA, and a minimum inhibitory concentration thereof is determined by the conventional method (E-Test®) to be 32 μg/mL.

Assay [8] relates to E. casseliflavus (vanC2). Description: Microfluidic system of Embodiment 1 antibiotic susceptibility testing (Test 5). Particulars: Enterococcus casseliflavus, incubation time 17 hours. Type of assay: cell-based. How it is done: as §1, §2
In Test 5, the antibiotic solution, the dilution mode and the operation of the microfluidic system are the as Test 1. […] In particular, a genotype of the vancomycin-resistant Enterococcus in Test 4 is vanC2, and a minimum inhibitory concentration thereof is determined by the conventional method (E-Test®) to be 4 μg/mL. The incubation time and the determined minimum inhibitory concentration of E. casseliflavus (vanC2) in Test 5 are listed in Table 1.

The test system of assay [9] is E. faecium (vanB). Description: Microfluidic system of Embodiment 1 antibiotic susceptibility testing (Test 3). Type of assay: cell-based. To be noted: Enterococcus faecium, incubation time 19 hours. Here is the method:
as §1
as §2, with “testing. Please refer to FIG. 9, which is colorimetric results of the antibiotic susceptibility testing of the standard strain Enterococcus 29212 diluted by the microfluidic chip of FIG. 1.” for “testing.”
In Test 3, the antibiotic solution, the dilution mode and the operation of the microfluidic system are the as Test 1. […] In particular, a genotype of the vancomycin-resistant Enterococcus in Test 3 is vanB, and a minimum inhibitory concentration thereof is determined by the conventional method (E-Test®) to be 8 μg/mL.

Assay [10] relates to E. casseliflavus (vanC2). Put plainly: E-Test MIC, vancomycin-resistant Enterococcus vanC2 (Test 5). The assay is classed as cell-based. Particulars: 24 h, read-out: MIC (E-test). How it is done:
In Test 5, the antibiotic solution, the dilution mode and the operation of the microfluidic system are the as Test 1. However, a bacterial suspension to be tested of Test 5 is the bacterial suspension containing E. casseliflavus (vancomycin-resistant Enterococcus). In particular, a genotype of the vancomycin-resistant Enterococcus in Test 4 is vanC2, and a minimum inhibitory concentration thereof is determined by the conventional method (E-Test®) to be 4 μg/mL. The incubation time and the determined minimum inhibitory concentration of E. casseliflavus (vanC2) in Test 5 are listed in Table 1.

Assay [11] deals with E. faecium (vanA). Description: E-Test MIC, vancomycin-resistant Enterococcus vanA (Test 2). The assay is classed as cell-based. Particulars: incubation time 24 hours. Here is the method: In Test 2, the antibiotic solution, the dilution mode and the operation of the microfluidic system are the as Test 1. However, a bacterial suspension to be tested of Test 2 is the bacterial suspension containing E. faecium (vancomycin-resistant Enterococcus). In particular, a genotype of the vancomycin-resistant Enterococcus in Test 2 is vanA, and a minimum inhibitory concentration thereof is determined by the conventional method (E-Test®) to be 32 μg/mL.

For `CC(C)(O/N=C(\C(=O)N[C@@H]1C(=O)N2C(C(=O)[O-])=C(C[n+]3ccccc3)CS[C@H]12)c1csc(N)n1)C(=O)O` [ceftazidime], in [1], the “minimum inhibitory concentration alone (denominator of the FIC equation)” value is recorded as above 256 and the “minimum inhibitory concentration in combination (vancomycin + ceftazidime)” value was 2 µg/mL.

For the compound `CN[C@H](CC(C)C)C(=O)N[C@H]1C(=O)N[C@@H](CC(N)=O)C(=O)N[C@H]2C(=O)N[C@H]3C(=O)N[C@H](C(=O)N[C@H](C(=O)O)c4cc(O)cc(O)c4-c4cc3ccc4O)[C@H](O)c3ccc(c(Cl)c3)Oc3cc2cc(c3O[C@@H]2O[C@H](CO)[C@@H](O)[C@H](O)[C@H]2O[C@H]2C[C@](C)(N)[C@H](O)[C@H](C)O2)Oc2ccc(cc2Cl)[C@H]1O` [vancomycin], the MIC with E. gallinarum (vanC1) [2] came to 3 µg/mL (≈ 2.07 µM); in assay [3] (37° C. for 24 hours, live bacteria green fluorescence, read-out: minimum inhibitory concentration by fluorescent staining), 4 µg/mL (≈ 2.76 µM); in [3] (colorimetric (phenol red), incubation time 20 hours, read-out: MIC (Microfluidic system of Embodiment 1)) it was 4 µg/mL (≈ 2.76 µM); in assay [4], 4 µg/mL (≈ 2.76 µM); with E. faecium (vanB) [5], 8 µg/mL (≈ 5.52 µM); in the assay with E. gallinarum (vanC1) [6], 4 µg/mL (≈ 2.76 µM). Moreover, the MIC was above 16 µg/mL against E. faecium (vanA) [7]; 6 µg/mL (≈ 4.14 µM) with E. casseliflavus (vanC2) [8]; 4 µg/mL (≈ 2.76 µM) in the assay with E. faecium (vanB) [9]; 4 µg/mL (≈ 2.76 µM) with E. casseliflavus (vanC2) [10]; 32 µg/mL (≈ 22.1 µM) in the assay on E. faecium (vanA) [11]. The “susceptibility of the strain according to the CLSI guidelines” value in assay [3] is recorded as “susceptible”. Further, in assay [3] (colorimetric (phenol red), incubation time 20 hours), the “MIC (Microfluidic system of Embodiment 1)” value amounted to 4 ± 0 µg/mL. The “minimum inhibitory concentration alone (denominator of the FIC equation)” value in assay [1] is 3. The “minimum inhibitory concentration in combination (vancomycin + ceftazidime)” value in assay [1] stood at 4 µg/mL.
